Data: ChEMBL document CHEMBL1201862, “PubChem BioAssay data set” (2004)
Activity calls are given as the source filed them.

Key:
Beta Lactamase = Beta Lactamase (Pseudomonas aeruginosa, UniProt Q932Y6); assay: beta-lactamase reporter inhibitor potency, dose response, artefact control for TLR9-MyD88 binding inhibitor project, BLA reporter cells, FRET fluorescence (AID 588341); format: cell-based;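 further: cell based assay in CHO-K1 cells stably expressing beta-lactamase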
[1] = HepG2 cell cytotoxicity, dose response, cytotoxicity control for Shn3 inhibitor project, CellTiter-Glo, cherry-picked (AID 624134); format: functional, cell-based
[2] = Shn3 3'UTR reporter inhibitors, dose response, cell-based, Clone20 osteoblasts, firefly luciferase, cherry-picked (AID 624132); format: functional;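 further: firefly luciferase luminescence from reporter carrying the Shn3 3'UTR in osteoblasts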
[3] = control 3'UTR Renilla luciferase suppression, dose response, counter-screen for Shn3 inhibitor project, cell-based, Clone20-Shn3RL, cherry-picked (AID 624133); format: functional
CHO = assay: cytotoxicity in TLR9-MyD88 CHO cells, dose response, cytotoxicity control for TLR9-MyD88 binding inhibitor project, cell-based, luminescence (AID 588339); format: functional, hamster; settings: Cricetulus griseus;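 further: CHO cells stably coexpressing TLR9 and MyD88 fusions from primary screen; compound exposure lasted 48 hours before viability readout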
CHO-K1 = assay: (§1) Counterscreen for antagonists of the orexin 1 receptor (OX1R; HCRTR1): Homogeneous time resolved fluorescence (HTRF)-based cell-based dose response assay to identify antagonists of the parental CHO-K1 cell line. [Related pubchem assays (depositor defined):AID434989, AID435008, AID463079, AID485270, AID492963, AID492964, AID492965, AID493232, AID504699, AID504701]; format: functional; settings: Cricetulus griseus
Orexin receptor type 2 [4] = target: T1, Orexin receptor type 2 (Homo sapiens, UniProt O43614); assay: Counterscreen assay for antagonists of the orexin 1 receptor (OX1R; HCRTR1): Homogeneous Time Resolved Fluorescence (HTRF)-based cell-based dose response assay for antagonists of the orexin 2 receptor (OX2R; HCRTR2), run by assay provider.; format: functional
[5] = target: T2, Orexin/Hypocretin receptor type 1 (Homo sapiens, UniProt O43613); assay: (§2) Fluorescence-based cell-based high throughput dose response assay for antagonists of the orexin 1 receptor (OX1R; HCRTR1). [Related pubchem assays (depositor defined):AID434989, AID435008, AID463079, AID485270, AID492963, AID492964, AID492965, AID493232, AID504717, AID504718]; format: functional
T2 sequence (O43613 whole entry): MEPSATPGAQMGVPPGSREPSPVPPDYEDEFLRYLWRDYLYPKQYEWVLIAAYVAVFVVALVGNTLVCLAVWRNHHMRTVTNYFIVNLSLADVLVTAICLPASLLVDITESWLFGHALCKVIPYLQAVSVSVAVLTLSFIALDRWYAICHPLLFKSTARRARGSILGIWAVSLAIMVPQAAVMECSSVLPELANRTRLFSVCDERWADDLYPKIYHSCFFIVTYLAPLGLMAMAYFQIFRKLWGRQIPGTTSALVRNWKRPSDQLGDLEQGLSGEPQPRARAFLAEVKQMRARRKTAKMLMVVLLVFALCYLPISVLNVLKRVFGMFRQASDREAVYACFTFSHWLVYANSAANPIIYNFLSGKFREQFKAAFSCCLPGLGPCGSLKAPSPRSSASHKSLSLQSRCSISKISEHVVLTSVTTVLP

Orexin receptor type 2 [6] = target: T1, Orexin receptor type 2; assay: Counterscreen assay for antagonists of the orexin 1 receptor (OX1R; HCRTR1): Fluorescence-based cell-based dose response assay for antagonists of the orexin 2 receptor (OX2R; HCRTR2), run by assay provider.; format: functional
[7] = as §1, with “Fluorescence-based” for “Homogeneous time resolved fluorescence (HTRF)-based”, “cell-based high throughput” for “cell-based”, “CHO” for “CHO-K1”; format: functional
[8] = target: T2, Orexin/Hypocretin receptor type 1; assay: as §2, with “Homogeneous Time Resolved Fluorescence (HTRF)-based” for “Fluorescence-based”; format: functional
[9] = A549 cell cytotoxicity, dose response, cytotoxicity control, plate reader, cherry-pick, antagonist series (AID 743412); format: functional, cell-based
[10] = MC4R antagonists, dose response, counter-screen for LGR2 antagonist project, cell-based, plate reader, cherry pick (AID 743444); format: functional;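 further: transfected HEK 293 cells stimulated with alpha-MSH peptide; potency of inhibitors of the alpha-MSH evoked signal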
[11] = inhibitors of cytokine-induced nitrite release, dose response, cell-based, Griess absorbance, INS-1E, dry powder, set 3 (AID 488870); format: functional; settings: Rattus norvegicus
[12] = HepG2 cell cytotoxicity, dose response, cytotoxicity control, plate reader, cherry-pick, antagonist series (AID 743416); format: functional, cell-based
INS1 [13] = assay: inhibitors of cytokine-induced nitrite release, dose response, cell-based, Griess absorbance, INS-1E, dry powder, set 2 (AID 488868); format: functional; settings: Rattus norvegicus
[14] = HEK293 cell cytotoxicity, dose response, cytotoxicity control, plate reader, cherry-picked samples (AID 743446); format: functional, cell-based
INS1 [15] = assay: INS-1E beta-cell viability without cytokines, dose response, cytotoxicity control for beta-cell cytokine protection project, CellTiter-Glo luminescence, dry powder (AID 488864); format: functional, cell-based; settings: Rattus norvegicus
[16] = LGR2 antagonists, dose response, cell-based, HEK293, CRE-luciferase reporter, cherry pick, set 2 (AID 743343); format: functional;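 further: transfected cells were stimulated with diluted bursicon conditioned medium after compound addition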

T1 sequence (O43614 whole entry): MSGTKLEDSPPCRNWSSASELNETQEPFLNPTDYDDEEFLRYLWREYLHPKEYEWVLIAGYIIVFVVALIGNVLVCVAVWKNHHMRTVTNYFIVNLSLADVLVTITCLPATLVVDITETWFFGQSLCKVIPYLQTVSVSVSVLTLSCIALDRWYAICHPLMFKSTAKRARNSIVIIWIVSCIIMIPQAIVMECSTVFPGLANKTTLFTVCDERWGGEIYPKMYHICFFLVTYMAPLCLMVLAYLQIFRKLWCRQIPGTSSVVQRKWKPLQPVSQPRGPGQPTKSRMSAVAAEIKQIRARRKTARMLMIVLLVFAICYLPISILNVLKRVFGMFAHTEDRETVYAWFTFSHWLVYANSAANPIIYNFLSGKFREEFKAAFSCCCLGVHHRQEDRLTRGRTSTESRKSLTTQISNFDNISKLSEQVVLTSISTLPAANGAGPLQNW
Sequence of Beta Lactamase (Q932Y6 whole entry): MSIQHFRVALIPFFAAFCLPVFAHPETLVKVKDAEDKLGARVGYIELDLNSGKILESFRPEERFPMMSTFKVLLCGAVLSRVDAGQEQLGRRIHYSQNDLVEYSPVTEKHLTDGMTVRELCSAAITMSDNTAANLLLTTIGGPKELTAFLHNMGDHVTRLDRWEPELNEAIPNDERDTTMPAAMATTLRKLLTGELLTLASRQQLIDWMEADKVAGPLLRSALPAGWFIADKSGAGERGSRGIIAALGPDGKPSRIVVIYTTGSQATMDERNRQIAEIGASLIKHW

C=C1C(=O)c2sccc2C(c2ccc(OC)c(OC)c2)C1COC(C)=O (centres undefined)
IC50 (Beta Lactamase): 21.4 µM (inactive)
AC50 [1]: 6.99 µM (active)
AC50 [2]: 0.662 µM (active)
AC50 [3]: 3.62 µM (active)
IC50 (CHO): 1.69 µM (active)

O=C(O)CCn1c(SCCOc2ccccc2)nc2ccccc21
IC50 (CHO-K1): > 66.2 µM (inactive)
IC50 (Orexin receptor type 2 [4]): > 50 µM (inactive)
IC50 [5]: 23 µM (inactive)
IC50 (Orexin receptor type 2 [6]): > 88.8 µM (inactive)
IC50 [7]: > 49.7 µM (inactive)
IC50 [8]: 0.687 µM (active)

COc1ccc(S(=O)(=O)N(C)C[C@@H]2Oc3c(NC(=O)c4nc5ccccc5s4)cccc3C(=O)N([C@@H](C)CO)C[C@H]2C)cc1
AC50 [9]: 15 µM (active)
AC50 [10]: 28.8 µM (active)
AC50 [11]: 38.6 µM (active)
AC50 [12]: 23.7 µM (active)
AC50 (INS1 [13]): 30.7 µM (active)
AC50 [14]: > 52 µM (inactive)
AC50 (INS1 [15]): 32.7 µM (active)
AC50 [16]: 9.82 µM (active)
